Laboratory results as given in US4990499A, “Anti-herpes simplex virus activity of 5-alkoxymethyl-2'-deoxycytidimes and their 5-monophosphates” (priority 1989, dated 1991).
pEC50: −log10 of the molar value. Values after ≈ are worked out from the molar mass of the structure shown. Like-named read-outs stand apart in the source and are kept apart here.

Assays:
[1] = test system: Herpes simplex virus type 1 (HSV-1); assay: Antiviral activity against HSV-1, viral plaque reduction (ED50); type: cell-based
Method: (§1) Infected cells were treated with different concentrations of MMdCyd and the concentration required to reduce viral plaque formation by 50%, i.e. ED50, was determined.
(§2) ^a ED50 : Concentration required to reduce viral plaque formatio
Vero cells were infected with the KOS strain of HSV-1. The compound of compounds indicated in Table 2, below, and are shown graphically in FIGS. 1, (H4 dUrd) and 2 (H4 Urd).
^a Antiviral assays were carried out using Vero cells. All compounds
were added immediately after virus infection.
(§3) The antiviral activity of MMdCyd in the presence of H4 dUrd was determined against several strains of HSV-1 and HSV-2.
Vero cells were infected with HSV-1, strain 76 and treated with MMdCyd at different times post virus infection.
(§4) The antiviral activity, ^a cyctotoxicity* and antiviral indices of MMdCyd in the presence of H4 dUrd, dGuo and H4 dUrd+dGuo were determined.
^a Antiviral assays were carried out using Vero cells. Compounds were
added immediately after virus infection. Virus HSV1, strains KOS and 76;
KOS, virus input = 50 PFU

[2] = test system: Herpes simplex virus type 2 (HSV-2); assay: Antiviral activity against HSV-2, viral plaque reduction (ED50); type: cell-based; settings: 50 PFU
Method: as §1, §2, §3
^a Antiviral assays were carried out using Vero cells. Virus input 50
^b ED50 : Concentration required to reduce viral plaque formatio

HSV-1, KOS = assay: HSV-1 KOS infectivity in Vero cells prior to washing of drugs; type: cell-based, Herpes simplex virus type 1; settings: for Virus Infectivity (% of virus control): combination with H4 dUrd 530 μM
Method: Vero cells were infected with HSV-1, KOS strain and then treated with MMdCyd in various quantities, and also with MMdCyd in various quantities together with a constant amount of H4 dUrd. The virus infectivity was observed and the results are given in Table 5 and are shown graphically in FIG. 3.
^a Virus infectivity was scored using following parameters: rounding
of cells, plaque formation and loss of monolayer structure.
^b Concentration of H4 dUrd used was 530 μM (125 μg/ml).

[3] = test system: Deoxynucleoside Triphosphate (dNTP) Pools in Uninfected Vero Cells; assay: Deoxynucleoside triphosphate (dNTP) pools in uninfected (mock-infected) Vero cells; type: cell-based; settings: Table 7, uninfected Vero cells, treatment 7 hours, ± S.E.
Method in brief: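 Vero cells were mock-infected for 1 h, then treated with MMdCyd, H4 dUrd, both together, dGUO ± H4 dUrd, or N-methyl-MMdCyd, with untreated cells as control. dNTP pools were measured, and values are means of at least two assays of triplicate cell cultures.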

[4] = test system: Deoxynucleoside Triphosphate (dNTP) Pools in Vero Cells Infected with Herpes Simplex Virus Type 1; assay: Deoxynucleoside triphosphate (dNTP) pools in HSV-1 infected Vero cells; type: cell-based; settings: Table 8, HSV-1 KOS infected Vero cells, 10 PFU/cell, treatment 7 hours, ± S.E.
Method in brief: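 Vero cells infected with HSV-1 KOS at 10 PFU/cell for one hour, then treated for seven hours with dGuo alone or dGuo plus H4 dUrd added right after adsorption. Intracellular dNTP pools then assayed, with untreated Vero cells as control.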

[5] = Cytotoxicity (MTC), RK-13 cells; type: cell-based; settings: rabbit, read-out: minimum cytotoxic concentration (MTC)
Method: (§5) Minimum cytotoxic concentrations (MTC) for MMdCyd was greater than 1,000 μg/ml for RK-13, HEP-2 and Vero cells.
(§6) ^c MTC = Minimum toxic concentration concentration required to
(§7) produce definite evidence of microscopic toxicity on confluent monolayer

[6] = Cytotoxicity (MTC), HEP-2 cells; type: cell-based; settings: human, read-out: minimum cytotoxic concentration (MTC)
Method: as §5, §6, §7

[7] = Cytotoxicity (MTC), Vero cells; type: cell-based; settings: monkey
Method: as §4, §5, §6, §7

Vero cells = assay: Cytotoxicity (MTC), Vero cells; type: cell-based; settings: monkey
Method: as §4, §5, §6, §7

[8] = Inhibition of proliferation (MTC), Raji cells; type: cell-based; settings: human, highest concentration tested
Method: (§8) Inhibitory effects of MMdCyd on the proliferation of murine and human tumor cells was also investigated. MTC for MMdCyd was greater than 400 μg/ml (highest concentration tested) against Raji, MOLT/4F, MT4, CEM and H-9 (human) and L1210 (murine Leukemia) cells.

[9] = Inhibition of proliferation (MTC), MOLT/4F cells; type: cell-based; settings: human, highest concentration tested
Method: as §8

[10] = Inhibition of proliferation (MTC), MT4 cells; type: cell-based; settings: human, highest concentration tested
Method: as §8

[11] = Inhibition of proliferation (MTC), CEM cells; type: cell-based; settings: human, highest concentration tested
Method: as §8

[12] = Inhibition of proliferation (MTC), H-9 cells; type: cell-based; settings: human, highest concentration tested
Method: as §8

[13] = Inhibition of proliferation (MTC), L1210 cells; type: cell-based, murine; settings: mouse, highest concentration tested
Method: as §8

[14] = test system: Herpes simplex virus type 1 (HSV-1); assay: Antiviral activity against HSV-1, viral plaque reduction (ED50); type: cell-based; remark: listed apart in the source

With `COCc1cn([C@H]2C[C@H](O)[C@@H](CO)O2)c(=O)nc1N` [MMdCyd, 5-methoxymethyl-2'-deoxycytidine] the ED50 [1] was 6 to 12 µg/mL, the ED50 ([1]; FIG. 6, after preincubating cells 3 hours with 25 μm dUrd, then washing) was 21 µg/mL (≈ 77.4 µM) and the ED50 ([1]; FIG. 6, with 25 μM dUrd added simultaneously) was 38 µg/mL (≈ 140 µM). The pEC50 ([1]; HSV-1 76, Vero, 50 PFU, added 4 hours post infection, read-out: ED50 (the source's name)) was 4.55, the pEC50 ([1]; HSV-1 76, Vero, 50 PFU, added 6 hours post infection, read-out: ED50 (the source's name)) was 4.49 and the pEC50 ([1]; HSV-1 (strain cell empty, under NAH), RK-13, 10 PFU, read-out: ED50 (the source's name)) was 5.52. The pEC50 ([1]; HSV-1, Vero and HEP-2 cells, read-out: ED50 (the source's name)) was 4.59 to 4.85, the pEC50 ([1]; HSV-1 KOS, Vero, 20 PFU, read-out: ED50 (the source's name)) was 4.85 and the pEC50 ([1]; HSV-1 KOS, Vero, 50 PFU, read-out: ED50 (the source's name)) was 4.59. For the same molecule, the pEC50 ([1]; HSV-1 NAH, Vero, 50 PFU, read-out: ED50 (the source's name)) was 4.18, the “activity against thymidine kinase negative strain” value ([1]; HSV--TK^-) was “lack of activity” and the “ED50, average value” ([1]; Table 11, Vero, HSV-1 KOS and 76, 50-100 PFU, H4 dUrd 12 μg/ml, dGuo 25-30 μg/ml, average) was 8 µg/mL (≈ 29.5 µM). For the same molecule, the “A.I (antiviral index, MTC divided by ED50)” value ([1]; monkey, vero cells) was over 125, the pEC50 ([1]; read-out: ED50, HSV-1 TK, Vero, 10 PFU, highest concentration tested) was under 3.08 and the pEC50 ([1]; read-out: ED50, HSV-1 TK, Vero, 50 PFU, highest concentration tested) was under 3.08. The antiherpes activity ([1]; summary statement) was “potent and selective antiherpes agent”, the “ED50 on delayed treatment compared with one hour post virus infection” value ([1]; treatment delayed 4 to 6 hours post infection) was “essentially similar” and the pEC50 ([2]; HSV-2 333, Vero) was 3.76. For the same molecule, the pEC50 ([2]; HSV-2 MS, Vero) was 3.64, the pEC50 ([2]; HSV-2 X-265, Vero) was 3.89 and the “viral infectivity, conclusion” value (HSV-1, KOS; Example 7) was “reduces viral infectivity”. For the same molecule, the “Virus Infectivity (% of virus control)” value (HSV-1, KOS; MMdCyd 1.6 μM) was 90 % of virus control, the “Virus Infectivity (% of virus control)” value (HSV-1, KOS; MMdCyd 3.2 μM) was 80 % of virus control and the “Virus Infectivity (% of virus control)” value (HSV-1, KOS; MMdCyd 6.4 μM) was 66 % of virus control. The “Virus Infectivity (% of virus control)” value (HSV-1, KOS; MMdCyd 12.8 μM) was 64 % of virus control, the “Virus Infectivity (% of virus control)” value (HSV-1, KOS; MMdCyd 25.6 μM) was 45 % of virus control and the “Virus Infectivity (% of virus control)” value (HSV-1, KOS; MMdCyd 51.2 μM) was 32 % of virus control. For the same molecule, the “Virus Infectivity (% of virus control)” value (HSV-1, KOS; MMdCyd 104 μM) was 20 % of virus control, the “Virus Infectivity (% of virus control)” value (HSV-1, KOS; MMdCyd 208 μM) was 9 % of virus control and the “Virus Infectivity (% of virus control)” value (HSV-1, KOS; MMdCyd 416 μM) was 0 % of virus control. The “Virus Infectivity (% of virus control)” value (HSV-1, KOS; MMdCyd 832 μM) was 0 % of virus control, the “production of infectious virus particles” value (HSV-1, KOS; combination: MMdCyd >12 μM with H4 dUrd (printed 530 M)) was “significantly decreased” and the dATP pool [3] was 8.3 ± 0.32 .rho.moles/10^6 cells. The dCTP pool [3] was 14.2 ± 1.30 .rho.moles/10^6 cells, the dGTP pool [3] was 52 ± 1.84 .rho.moles/10^6 cells and the dTTP pool [3] was 44 ± 1.67 .rho.moles/10^6 cells. For the same molecule, the dATP pool [4] was 25.2 ± 0.49 .rho.moles/10^6 cells, the dCTP pool [4] was 29.6 ± 1.85 .rho.moles/10^6 cells and the dGTP pool [4] was 72.6 ± 2.07 .rho.moles/10^6 cells. The dTTP pool [4] was 1072 ± 11.2 .rho.moles/10^6 cells, the MCC [5] was over 1000 µg/mL and the MCC [6] was over 1000 µg/mL. The MCC [7] was over 1000 µg/mL, the “MTC (minimum toxic concentration)” value (Vero cells) was > 1,000 μg/ml and the MCC [8] was over 400 µg/mL. It also gave an MCC [9] of over 400 µg/mL, an MCC [10] of over 400 µg/mL and an MCC [11] of over 400 µg/mL. It also gave an MCC [12] of over 400 µg/mL, an MCC [13] of over 400 µg/mL and a pEC50 ([14]; HSV-1 76, HEP-2, 50 PFU) of 4.66. It also gave a pEC50 ([14]; HSV-1 (strain cell empty, under NAH), RK-13, 50 PFU) of 5.30 and a pEC50 ([14]; HSV-1 KOS, Vero, 20 PFU, deaminase inhibitor 125 μg/ml, added immediately after infection) of 4.77 to 4.92.
